Data: ChEMBL document CHEMBL1201862, “PubChem BioAssay data set” (2004)
Activity calls are given as the source filed them.

Columns and labels:
[1] = tested on: CHO-K1; assay: (§1) Counterscreen for antagonists of the orexin 1 receptor (OX1R; HCRTR1): Homogeneous time resolved fluorescence (HTRF)-based cell-based dose response assay to identify antagonists of the parental CHO-K1 cell line. [Related pubchem assays (depositor defined):AID434989, AID435008, AID463079, AID485270, AID492963, AID492964, AID492965, AID493232, AID504699, AID504701]; assay type: functional; details: Cricetulus griseus
[2] = as §1, with “Fluorescence-based” for “Homogeneous time resolved fluorescence (HTRF)-based”, “cell-based high throughput” for “cell-based”, “CHO” for “CHO-K1”; assay type: functional
[3] = target: T1, Orexin/Hypocretin receptor type 1 (Homo sapiens, UniProt O43613); assay: Homogeneous Time Resolved Fluorescence (HTRF)-based cell-based high throughput dose response assay for antagonists of the orexin 1 receptor (OX1R; HCRTR1). [Related pubchem assays (depositor defined):AID434989, AID435008, AID463079, AID485270, AID492963, AID492964, AID492965, AID493232, AID504717, AID504718]; assay type: functional
T1 sequence (O43613 whole entry): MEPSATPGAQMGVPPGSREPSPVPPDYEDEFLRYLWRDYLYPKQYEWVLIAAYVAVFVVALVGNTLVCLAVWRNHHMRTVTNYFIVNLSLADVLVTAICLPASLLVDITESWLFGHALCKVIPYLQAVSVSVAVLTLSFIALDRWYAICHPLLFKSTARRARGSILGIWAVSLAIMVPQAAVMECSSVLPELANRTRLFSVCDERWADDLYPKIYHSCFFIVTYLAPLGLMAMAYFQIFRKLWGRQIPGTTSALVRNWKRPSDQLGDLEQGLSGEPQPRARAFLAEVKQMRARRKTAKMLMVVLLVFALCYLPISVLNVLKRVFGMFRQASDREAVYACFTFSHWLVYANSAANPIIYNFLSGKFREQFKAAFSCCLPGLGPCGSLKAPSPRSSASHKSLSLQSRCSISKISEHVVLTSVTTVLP

[4] = target: T1, Orexin/Hypocretin receptor type 1; assay: Fluorescence-based cell-based high throughput dose response assay for antagonists of the orexin 1 receptor (OX1R; HCRTR1). [Related pubchem assays (depositor defined):AID434989, AID435008, AID463079, AID485270, AID492963, AID492964, AID492965, AID493232, AID504717, AID504718]; assay type: functional
[5] = target: T2, Orexin receptor type 2 (Homo sapiens, UniProt O43614); assay: Counterscreen assay for antagonists of the orexin 1 receptor (OX1R; HCRTR1): Fluorescence-based cell-based dose response assay for antagonists of the orexin 2 receptor (OX2R; HCRTR2), run by assay provider.; assay type: functional
T2 sequence (O43614 whole entry): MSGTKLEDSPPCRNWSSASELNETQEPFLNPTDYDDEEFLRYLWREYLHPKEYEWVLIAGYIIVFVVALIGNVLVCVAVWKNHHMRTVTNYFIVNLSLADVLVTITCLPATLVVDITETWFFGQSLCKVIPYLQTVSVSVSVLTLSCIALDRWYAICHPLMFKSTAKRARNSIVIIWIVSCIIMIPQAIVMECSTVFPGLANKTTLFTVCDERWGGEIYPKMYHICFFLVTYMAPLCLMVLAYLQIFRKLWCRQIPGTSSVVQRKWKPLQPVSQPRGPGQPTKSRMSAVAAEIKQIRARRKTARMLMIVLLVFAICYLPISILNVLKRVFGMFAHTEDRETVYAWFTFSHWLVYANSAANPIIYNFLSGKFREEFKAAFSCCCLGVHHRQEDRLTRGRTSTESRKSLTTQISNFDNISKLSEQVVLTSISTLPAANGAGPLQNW

[6] = target: T2, Orexin receptor type 2; assay: Counterscreen assay for antagonists of the orexin 1 receptor (OX1R; HCRTR1): Homogeneous Time Resolved Fluorescence (HTRF)-based cell-based dose response assay for antagonists of the orexin 2 receptor (OX2R; HCRTR2), run by assay provider.; assay type: functional
[7] = target: T3, Apoptotic protease-activating factor 1 (Homo sapiens, UniProt O14727); assay: SAR analysis of small molecule Activators of Apaf-1 in a Fluorescent assay.; assay type: functional; details: read-out: EC50_Mean;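 also: caspase-3 cleavage of fluorogenic Rh110 DEVD substrate downstream of apoptosome activation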
T3 sequence (O14727 whole entry): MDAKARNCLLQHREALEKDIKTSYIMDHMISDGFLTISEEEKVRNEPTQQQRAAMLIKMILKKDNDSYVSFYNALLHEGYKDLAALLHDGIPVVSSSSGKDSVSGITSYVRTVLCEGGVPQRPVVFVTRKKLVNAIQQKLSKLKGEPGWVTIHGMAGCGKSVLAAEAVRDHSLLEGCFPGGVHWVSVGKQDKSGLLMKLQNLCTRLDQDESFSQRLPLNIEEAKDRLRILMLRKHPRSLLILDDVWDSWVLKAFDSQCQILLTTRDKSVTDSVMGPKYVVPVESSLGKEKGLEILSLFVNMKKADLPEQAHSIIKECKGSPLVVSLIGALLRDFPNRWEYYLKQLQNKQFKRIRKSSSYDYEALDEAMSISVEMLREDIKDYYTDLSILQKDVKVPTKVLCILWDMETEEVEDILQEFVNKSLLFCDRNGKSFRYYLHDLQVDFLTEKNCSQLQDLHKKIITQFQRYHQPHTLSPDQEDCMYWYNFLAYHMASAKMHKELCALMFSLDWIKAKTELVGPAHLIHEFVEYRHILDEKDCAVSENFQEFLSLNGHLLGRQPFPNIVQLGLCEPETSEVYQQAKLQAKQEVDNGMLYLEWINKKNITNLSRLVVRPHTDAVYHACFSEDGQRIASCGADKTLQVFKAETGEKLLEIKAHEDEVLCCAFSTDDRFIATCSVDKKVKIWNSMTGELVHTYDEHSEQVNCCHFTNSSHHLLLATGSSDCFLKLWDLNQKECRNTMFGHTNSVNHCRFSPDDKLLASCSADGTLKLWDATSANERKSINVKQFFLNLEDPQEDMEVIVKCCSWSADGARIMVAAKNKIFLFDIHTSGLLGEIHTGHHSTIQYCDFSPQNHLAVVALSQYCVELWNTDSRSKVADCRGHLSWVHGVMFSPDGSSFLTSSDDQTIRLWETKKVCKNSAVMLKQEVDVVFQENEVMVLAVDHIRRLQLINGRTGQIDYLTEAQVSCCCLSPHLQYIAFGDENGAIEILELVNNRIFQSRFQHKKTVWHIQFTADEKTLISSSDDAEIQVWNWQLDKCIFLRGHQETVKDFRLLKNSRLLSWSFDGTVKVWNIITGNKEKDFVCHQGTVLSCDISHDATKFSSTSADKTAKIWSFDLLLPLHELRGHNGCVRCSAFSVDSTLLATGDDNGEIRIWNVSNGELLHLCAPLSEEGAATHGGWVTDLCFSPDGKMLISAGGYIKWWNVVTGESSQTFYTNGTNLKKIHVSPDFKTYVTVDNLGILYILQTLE

[8] = luciferase reporter signal suppression in cells – H4 neuroglioma cells, luminescence, dose response (AID 1990); assay type: functional, cell-based
[9] = Luminescence Cell-Based Dose Response HTS to Identify Inhibitors of 5'UTR Stem-Loop Driven Prion Protein mRNA Translation in H4 Neuroglioblastoma Cells. [Related pubchem assays: 1827 (Project Summary), 1813 (Primary HTS)]; assay type: functional
[10] = alpha-synuclein stem-loop luciferase translation blockers – H4 neuroglioma cells, luminescence, confirmation (AID 1988); assay type: functional, cell-based
[11] = target: T4, Mitochondrial peptide methionine sulfoxide reductase (Bos taurus, UniProt P54149); assay type: functional;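 also: absorbance read-out, biochemical high-throughput dose-response screen for MsrA inhibitors, confirmatory; recombinant bovine MsrA coupled to E. coli TrxB with NADPH and selenocystamine; potency is for inhibitors of MsrA activity on DMSO substrate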
T4 sequence (P54149 whole entry): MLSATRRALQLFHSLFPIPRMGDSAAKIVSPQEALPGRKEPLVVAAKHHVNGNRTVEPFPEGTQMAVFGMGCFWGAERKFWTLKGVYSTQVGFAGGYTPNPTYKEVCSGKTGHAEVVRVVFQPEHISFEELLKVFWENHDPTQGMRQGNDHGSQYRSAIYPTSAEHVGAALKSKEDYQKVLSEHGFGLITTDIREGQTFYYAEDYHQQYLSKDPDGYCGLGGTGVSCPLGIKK

[12] = target: T5, Tyrosine-protein phosphatase non-receptor type 11 (Homo sapiens, UniProt Q06124); assay: PTPN11 enzyme inhibitors – biochemical, selectivity assay for STEP inhibitor project, dose response (AID 602367); assay type: functional; details: read-out: IC50_Mean
T5 sequence (Q06124 whole entry): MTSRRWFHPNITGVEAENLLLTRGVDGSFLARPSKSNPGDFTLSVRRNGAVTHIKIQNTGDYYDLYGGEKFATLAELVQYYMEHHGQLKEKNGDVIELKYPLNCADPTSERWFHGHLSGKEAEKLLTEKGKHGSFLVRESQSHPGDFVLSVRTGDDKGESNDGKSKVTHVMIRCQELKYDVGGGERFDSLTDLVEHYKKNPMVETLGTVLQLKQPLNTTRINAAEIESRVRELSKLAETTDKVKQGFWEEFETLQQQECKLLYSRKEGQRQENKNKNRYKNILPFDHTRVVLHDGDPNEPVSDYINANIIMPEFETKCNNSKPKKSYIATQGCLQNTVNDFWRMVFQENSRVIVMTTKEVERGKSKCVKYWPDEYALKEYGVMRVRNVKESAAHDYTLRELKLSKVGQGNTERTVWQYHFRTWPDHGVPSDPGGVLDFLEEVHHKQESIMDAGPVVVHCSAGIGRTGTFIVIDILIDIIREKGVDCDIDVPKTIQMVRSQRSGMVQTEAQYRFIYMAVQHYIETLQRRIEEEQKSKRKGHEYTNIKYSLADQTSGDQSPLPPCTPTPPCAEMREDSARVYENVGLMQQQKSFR

[13] = target: T6, Tyrosine-protein phosphatase non-receptor type 5 (Homo sapiens, UniProt P54829); assay: PTPN5 enzyme inhibition – biochemical, fluorescence intensity, uHTS hits, confirmation (AID 602372); assay type: functional; details: read-out: IC50_Mean
T6 sequence (P54829 whole entry): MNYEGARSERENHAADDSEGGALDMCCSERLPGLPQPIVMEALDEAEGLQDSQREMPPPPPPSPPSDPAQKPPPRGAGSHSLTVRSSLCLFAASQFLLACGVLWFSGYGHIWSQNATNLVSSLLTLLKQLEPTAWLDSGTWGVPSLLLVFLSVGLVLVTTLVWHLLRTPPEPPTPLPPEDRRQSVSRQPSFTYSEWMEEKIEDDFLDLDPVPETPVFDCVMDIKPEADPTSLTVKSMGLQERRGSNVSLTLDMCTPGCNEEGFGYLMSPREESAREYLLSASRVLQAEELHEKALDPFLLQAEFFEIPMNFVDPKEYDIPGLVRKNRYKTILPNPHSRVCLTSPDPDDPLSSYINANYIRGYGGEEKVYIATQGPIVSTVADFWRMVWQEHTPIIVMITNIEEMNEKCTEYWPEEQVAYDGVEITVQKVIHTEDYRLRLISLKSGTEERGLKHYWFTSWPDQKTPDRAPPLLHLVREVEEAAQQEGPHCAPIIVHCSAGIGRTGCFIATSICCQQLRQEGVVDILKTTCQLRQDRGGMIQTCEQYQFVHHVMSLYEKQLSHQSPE

[14] = target: Dual specificity protein phosphatase 3 (Homo sapiens, UniProt P51452); assay: VHR phosphatase inhibition, dose response, selectivity assay for STEP inhibitor project, biochemical (AID 602374); assay type: functional; details: read-out: IC50_Mean
Dual specificity protein phosphatase 3, sequence (P51452 whole entry): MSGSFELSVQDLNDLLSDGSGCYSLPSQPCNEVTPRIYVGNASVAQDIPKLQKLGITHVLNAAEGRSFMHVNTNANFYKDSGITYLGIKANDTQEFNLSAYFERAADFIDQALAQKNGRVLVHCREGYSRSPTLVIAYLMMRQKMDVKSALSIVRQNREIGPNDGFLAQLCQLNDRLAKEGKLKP

[15] = target: T7, Cytochrome P450 1A2 (Homo sapiens, UniProt P05177);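 also: PubChem cytochrome P450 panel assay, CYP1A2 panel member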
T7 sequence (P05177 whole entry): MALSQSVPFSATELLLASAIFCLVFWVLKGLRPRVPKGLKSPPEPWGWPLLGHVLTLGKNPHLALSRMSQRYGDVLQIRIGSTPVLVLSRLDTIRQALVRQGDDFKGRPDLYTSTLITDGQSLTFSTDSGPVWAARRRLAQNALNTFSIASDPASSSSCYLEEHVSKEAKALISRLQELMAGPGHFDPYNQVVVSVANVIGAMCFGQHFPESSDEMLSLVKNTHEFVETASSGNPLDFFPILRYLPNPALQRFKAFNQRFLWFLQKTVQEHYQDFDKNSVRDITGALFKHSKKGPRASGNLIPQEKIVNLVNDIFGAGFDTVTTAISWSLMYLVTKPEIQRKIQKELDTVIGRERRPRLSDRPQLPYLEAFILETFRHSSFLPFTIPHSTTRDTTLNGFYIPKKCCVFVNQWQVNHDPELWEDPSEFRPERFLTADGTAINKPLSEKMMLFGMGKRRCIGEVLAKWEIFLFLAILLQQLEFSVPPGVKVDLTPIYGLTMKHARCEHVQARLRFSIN

SMILES | IC50 [1] | IC50 [2] | IC50 [3] | IC50 [4] | IC50 [5] | IC50 [6] | other results
CSc1cccc(NC(=O)C2CCCN(S(=O)(=O)c3ccc(F)cc3)C2)c1 (stereo unspecified) | > 66.2 µM (inactive) | > 49.8 µM (inactive) | 1.59 µM (active) | 10.4 µM (inactive) | 8.4 µM (active) | 14.2 µM (inactive) | –
C=CCn1c(SCC(=O)Nc2cc3oc4ccccc4c3cc2OC)nnc1-c1cnccn1 | > 66.2 µM (inactive) | > 49.7 µM (inactive) | 0.339 µM (active) | 3.14 µM (active) | 10.4 µM (inactive) | > 50 µM (inactive) | –
Cc1csc2c(=O)sc(NC(=O)c3ccco3)nc12 | – | – | – | – | – | – | EC50 [7]: > 100 µM (inactive)
O=[N+]([O-])c1c(Nc2ccccc2O)cc(N2CCOCC2)c2nonc12 | – | – | – | – | – | – | EC50 [8]: 25.1 µM (active); EC50 [9]: 30.5 µM (active); EC50 [10]: 111 µM (active); IC50 [11]: 67.7 µM (inactive)
COc1ccc(NC(=S)N2CCC(N(C)CC3CCCO3)CC2)cc1Cl (stereo unspecified) | – | – | – | – | – | – | IC50 [12]: 3.65 µM (active); IC50 [13]: 27.2 µM (inactive); IC50 [14]: 1.37 µM (active)
Cc1cccc(NC(=O)NNC(=O)c2cc(-c3ccccc3Cl)nc3ccccc23)c1 | > 66.3 µM (inactive) | 48 µM (inactive) | 0.815 µM (active) | 13.5 µM (inactive) | 16.4 µM (inactive) | 27.1 µM (inactive) | AC50 [15]: 15.8 µM (inconclusive)
Cn1cc(CC(=O)Nc2cccc(C#N)c2)c2ccccc21 | – | – | – | – | – | – | IC50 [12]: > 80 µM (inactive); IC50 [13]: > 80 µM (inactive); IC50 [14]: 51.9 µM (inactive)
CC(Cc1ccccc1)C(=O)O (stereo unspecified) | – | – | – | – | – | – | EC50 [7]: > 100 µM (inactive)
